Measured values as given in PubChem BioAssay (NCI).
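Following 48 hours of exposure in 96-well plates, responses at five concentrations were used to interpolate endpoints linearly. At the TGI there is no net growth.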

What was measured:
Assay in all cases: growth of human tumour cells (NCI), 48 h
HT29 colon = test system: HT29 colon
OVCAR-4 ovarian = test system: OVCAR-4 ovarian
OVCAR-8 ovarian = test system: OVCAR-8 ovarian
SK-MEL-28 melanoma = test system: SK-MEL-28 melanoma
SF-268 CNS = test system: SF-268 CNS
SNB-19 CNS = test system: SNB-19 CNS
SK-OV-3 ovarian = test system: SK-OV-3 ovarian
SN12C renal = test system: SN12C renal
UO-31 renal = test system: UO-31 renal
SR leukemia = test system: SR leukemia
M19-MEL melanoma = test system: M19-MEL melanoma
RPMI-8226 leukemia = test system: RPMI-8226 leukemia
UACC-62 melanoma = test system: UACC-62 melanoma
HCT-15 colon = test system: HCT-15 colon
A498 renal = test system: A498 renal
HOP-92 NSCLC = test system: HOP-92 NSCLC
DLD-1 colon = test system: DLD-1 colon
LXFL 529 NSCLC = test system: LXFL 529 NSCLC
HOP-18 NSCLC = test system: HOP-18 NSCLC
SNB-75 CNS = test system: SNB-75 CNS
DMS 114 small cell lung = test system: DMS 114 small cell lung
CCRF-CEM leukemia = test system: CCRF-CEM leukemia
SNB-78 CNS = test system: SNB-78 CNS
HOP-62 NSCLC = test system: HOP-62 NSCLC
NCI-H23 lung = test system: NCI-H23 lung
MOLT-4 leukemia = test system: MOLT-4 leukemia
HL-60(TB) leukemia = test system: HL-60(TB) leukemia
EKVX NSCLC = test system: EKVX NSCLC
UACC-257 melanoma = test system: UACC-257 melanoma
COLO 205 colon = test system: COLO 205 colon
HCC-2998 colon = test system: HCC-2998 colon
NCI-H522 lung = test system: NCI-H522 lung
DMS 273 small cell lung = test system: DMS 273 small cell lung
SF-539 CNS = test system: SF-539 CNS
ACHN renal = test system: ACHN renal
MALME-3M melanoma = test system: MALME-3M melanoma
786-0 renal = test system: 786-0 renal
KM20L2 colon = test system: KM20L2 colon
SK-MEL-5 melanoma = test system: SK-MEL-5 melanoma
RXF 393 renal = test system: RXF 393 renal
SW-620 colon = test system: SW-620 colon
U251 CNS = test system: U251 CNS
K-562 leukemia = test system: K-562 leukemia
NCI-H226 lung = test system: NCI-H226 lung
M14 melanoma = test system: M14 melanoma
IGROV1 ovarian = test system: IGROV1 ovarian
A549 NSCLC = test system: A549 NSCLC
SF-295 CNS = test system: SF-295 CNS
HCT-116 colon = test system: HCT-116 colon
SK-MEL-2 melanoma = test system: SK-MEL-2 melanoma
TK-10 renal = test system: TK-10 renal
CAKI-1 renal = test system: CAKI-1 renal
OVCAR-3 ovarian = test system: OVCAR-3 ovarian
LOX IMVI melanoma = test system: LOX IMVI melanoma
NCI-H460 lung = test system: NCI-H460 lung
OVCAR-5 ovarian = test system: OVCAR-5 ovarian
KM12 colon = test system: KM12 colon

CCCCCCCC(=O)OC[C@@H](C[As](=O)(O)O)OC(=O)CCCCCCC
TGI (HT29 colon): 28.1 µM
TGI (OVCAR-4 ovarian): 28.9 µM
TGI (OVCAR-8 ovarian): 37.5 µM
TGI (SK-MEL-28 melanoma): 26.6 µM
TGI (SF-268 CNS): 20.3 µM
TGI (SNB-19 CNS): 27.3 µM
TGI (SK-OV-3 ovarian): 28.1 µM
TGI (SN12C renal): 23.3 µM
TGI (UO-31 renal): 17.1 µM
TGI (SR leukemia): 40.5 µM
TGI (M19-MEL melanoma): 31 µM
TGI (RPMI-8226 leukemia): 46.2 µM
TGI (UACC-62 melanoma): 23.4 µM
TGI (HCT-15 colon): 22.4 µM
TGI (A498 renal): 24 µM
TGI (HOP-92 NSCLC): 37.6 µM
TGI (DLD-1 colon): 27.5 µM
TGI (LXFL 529 NSCLC): 25.3 µM
TGI (HOP-18 NSCLC): 44.1 µM
TGI (SNB-75 CNS): 29.5 µM
TGI (DMS 114 small cell lung): 22.3 µM
TGI (CCRF-CEM leukemia): 9.55 µM
TGI (SNB-78 CNS): 30.8 µM
TGI (HOP-62 NSCLC): 32.9 µM
TGI (NCI-H23 lung): 26.4 µM
TGI (MOLT-4 leukemia): 18.6 µM
TGI (HL-60(TB) leukemia): 21.7 µM
TGI (EKVX NSCLC): 84.4 µM
TGI (UACC-257 melanoma): 35.6 µM
TGI (COLO 205 colon): 34.3 µM
TGI (HCC-2998 colon): 29.2 µM
TGI (NCI-H522 lung): 4.83 µM
TGI (DMS 273 small cell lung): 26.1 µM
TGI (SF-539 CNS): 22.3 µM
TGI (ACHN renal): 25.6 µM
TGI (MALME-3M melanoma): 28.5 µM
TGI (786-0 renal): 24.7 µM
TGI (KM20L2 colon): 31.2 µM
TGI (SK-MEL-5 melanoma): 26.9 µM
TGI (RXF 393 renal): 19.3 µM
TGI (SW-620 colon): 25.9 µM
TGI (U251 CNS): 19.9 µM
TGI (K-562 leukemia): 51.4 µM
TGI (NCI-H226 lung): 18.6 µM
TGI (M14 melanoma): 29.6 µM
TGI (IGROV1 ovarian): 16.4 µM
TGI (A549 NSCLC): 19.3 µM
TGI (SF-295 CNS): 28.9 µM
TGI (HCT-116 colon): 22.6 µM

CNC(=S)N/N=C1\CC(c2ccccc2)Oc2ccccc21 (configuration not stated)
TGI (HT29 colon): > 100 µM
TGI (OVCAR-4 ovarian): > 100 µM
TGI (OVCAR-8 ovarian): > 100 µM
TGI (SK-MEL-28 melanoma): > 100 µM
TGI (SF-268 CNS): > 100 µM
TGI (SNB-19 CNS): > 100 µM
TGI (SK-OV-3 ovarian): > 100 µM
TGI (SN12C renal): > 100 µM
TGI (UO-31 renal): > 100 µM
TGI (SR leukemia): > 100 µM
TGI (M19-MEL melanoma): > 100 µM
TGI (SK-MEL-2 melanoma): > 100 µM
TGI (UACC-62 melanoma): > 100 µM
TGI (HOP-92 NSCLC): > 100 µM
TGI (DLD-1 colon): > 100 µM
TGI (LXFL 529 NSCLC): > 100 µM
TGI (TK-10 renal): > 100 µM
TGI (SNB-75 CNS): > 100 µM
TGI (CCRF-CEM leukemia): > 100 µM
TGI (SNB-78 CNS): > 100 µM
TGI (NCI-H23 lung): > 100 µM
TGI (MOLT-4 leukemia): > 100 µM
TGI (CAKI-1 renal): > 100 µM
TGI (OVCAR-3 ovarian): > 100 µM
TGI (EKVX NSCLC): > 100 µM
TGI (COLO 205 colon): > 100 µM
TGI (HCC-2998 colon): > 100 µM
TGI (NCI-H522 lung): > 100 µM
TGI (DMS 273 small cell lung): > 100 µM
TGI (SF-539 CNS): > 100 µM
TGI (ACHN renal): > 100 µM
TGI (MALME-3M melanoma): > 100 µM
TGI (786-0 renal): > 100 µM
TGI (SK-MEL-5 melanoma): > 100 µM
TGI (RXF 393 renal): > 100 µM
TGI (SW-620 colon): > 100 µM
TGI (U251 CNS): > 100 µM
TGI (K-562 leukemia): > 100 µM
TGI (LOX IMVI melanoma): > 100 µM
TGI (NCI-H226 lung): > 100 µM
TGI (M14 melanoma): > 100 µM
TGI (IGROV1 ovarian): > 100 µM
TGI (A549 NSCLC): > 100 µM
TGI (SF-295 CNS): > 100 µM
TGI (NCI-H460 lung): > 100 µM
TGI (OVCAR-5 ovarian): > 100 µM
TGI (HCT-116 colon): > 100 µM
TGI (KM12 colon): > 100 µM
